For the experiment, the target named is HIV-1 RT (reverse transcriptase). The experiment in a line: Inhibitory concentration against HIV-1 RT was determined.

As usually defined, the IC50 is the concentration needed to halve the response being measured. Lower therefore signals higher potency.

Structures are written as SMILES.

In turn, `O=C(C[C@H]1C(=O)Nc2ccccc2-c2cccn21)OCc1ccccc1` displayed an IC50 of 0.115 µM.

For the origin of these results see BindingDB's records for doi:10.7270/Q21V5H4F (n/a, 1992).
